In the test the test system is Pseudomonas aeruginosa PAM1001. As to the kind of experiment: microbe, parasite or virus in culture. The test is classed as cell-based. The note with it: Pseudomonas aeruginosa, PAM1001, read-out: Inhibition (%) of growth of P. aeruginosa PAM1001. As to the method: For compounds labeled with the prefix ‘D’, potentiation is measured by inhibition of growth of Pseudomonas aeruginosa PAM1001 at varying concentrations of efflux pump inhibitors (EPIs) in the presence of levofloxacin (0.25 microg/mL). Bacteria are grown in Mueller Hinton Broth (MHB, Difco) with an initial inoculum of 1×10^6 CFU/mL. Kinetics of bacterial growth is monitored, during 18 h of incubation at 37° C., by measurement of the culture absorbance at 650 nm using a 96-well plate spectrophotometer (SpectraMax, Molecular Devices). The inhibitory effect of EPIs is expressed as a percentage of growth inhibition compared to a control bacterial culture grown in the presence of 0.25 microg/mL levofloxacin but without EPIs.

SMILES strings stand for the structures. Structures can show the parent of a compound that is named as a salt.

Turning to `Cc1ccc(NC(=O)[C@@H](CCc2ccccc2)NC(=O)[C@@H]2C[C@@H](NC(=O)CN)CN2)cc1C` [Compound D204, trans-4-Glycylamino-L-Prolyl-D-Homophenylalanine 3,4-Dimethylphenylamide Dihydrochloride], the inhibition – broadly, the drop in the measured response relative to a control, in per cent – at 2.5 µg/mL is 18%; the inhibition at 5 µg/mL is 16%; the inhibition at 10 µg/mL was determined as 3%; the inhibition at 20 µg/mL was found to be 100%. Besides, the inhibition at 40 µg/mL was 100%.
On to `Cc1c(Cl)cccc1N1CCN(C(=O)[C@H]2C[C@H](NC(=O)[C@@H](O)CN)CN2)CC1` [Compound D402, 1-[trans-4-((2S)-3-Amino-2-Hydroxypropionylamino)-D-Prolyl]-4-(3-Chloro-2-Methylphenyl)piperazine Dihydrochloride], for which the inhibition at 2.5 µg/mL was found to be 19%, the inhibition at 5 µg/mL was 71%, the inhibition at 10 µg/mL worked out at 99% and the inhibition at 20 µg/mL is 100%. For the same compound, the inhibition at 40 µg/mL was found to be 101%.
In the case of `NCCC1CN[C@H](C(=O)N2C[C@H](NC(=O)[C@H](O)CCc3ccccc3)C[C@H]2C(=O)Nc2cnc3ccccc3c2)C1` (stereo partly drawn) [Compound D110, 4-(2-Aminoethyl)-Prolyl-trans-4-((R)-2-Hydroxy-4-Phenylbutyrylamino)-L-Proline 3-Quinolylamide Trihydrochloride], the inhibition at 2.5 µg/mL is 20%, the inhibition at 5 µg/mL turned out to be 20%, the inhibition at 10 µg/mL was 100% and the inhibition at 20 µg/mL turned out to be 100%. The inhibition at 40 µg/mL is 100%.
With `N[C@H]1CCN[C@H](C(=O)N2C[C@H](NC(=O)[C@H](O)CCc3ccccc3)C[C@H]2C(=O)Nc2cnc3ccccc3c2)C1` (mixture of isomers) [Compound D112, trans-4-Amino-L-Pipecolinoyl-trans-4-((R)-2-Hydroxy-4-Phenylbutyrylamino)-L-Proline 3-Quinolylamide Trihydrochloride], the inhibition at 2.5 µg/mL was determined as 20%, the inhibition at 5 µg/mL came out at 20%, the inhibition at 10 µg/mL came out at 17% and the inhibition at 20 µg/mL came out at 58%. The inhibition at 40 µg/mL is 101%.
As to `NC[C@H]1CN[C@H](C(=O)Nc2ccc(Oc3ccccc3)cc2)C1` [Compound D331, trans-4-Aminomethyl-L-Proline 4-Phenoxyphenyl-amide Dihydrochloride], the inhibition at 2.5 µg/mL was determined as 17%, the inhibition at 5 µg/mL amounted to 9%, the inhibition at 10 µg/mL is -10% and the inhibition at 20 µg/mL was 100%. For the same compound, the inhibition at 40 µg/mL was 100%.
Turning to `NCC(=O)N[C@H]1CN[C@H](C(=O)N2CCC(Oc3cc(Cl)cc(Cl)c3)CC2)C1` [Compound D414, 1-(trans-4-Glycylamino-L-Prolyl)-4-(3,5-dichlorophenoxy)piperidine Dihydrochloride], the inhibition at 2.5 µg/mL amounted to 19%, the inhibition at 5 µg/mL worked out at 98%, the inhibition at 10 µg/mL came out at 100% and the inhibition at 20 µg/mL stood at 100%. The inhibition at 40 µg/mL was determined as 100%.
For the compound `NCC(=O)N[C@H]1CN[C@H](C(=O)Nc2ccc(SCc3ccccc3)cc2)C1` [Compound D320, trans-4-Glycylamino-L-Proline 4-Benzylthiophenyl-amide Dihydrochloride], the inhibition at 2.5 µg/mL was determined as 23%, the inhibition at 5 µg/mL amounted to 21%, the inhibition at 10 µg/mL came out at 97% and the inhibition at 20 µg/mL turned out to be 100%. Moreover, the inhibition at 40 µg/mL is 100%.
Regarding `NCC(=O)N[C@H]1CN[C@H](C(=O)Nc2ccc(OCc3ccccc3)cc2)C1` [Compound D317, trans-4-Glycylamino-L-Proline 4-Benzyloxyphenyl-amide Dihydrochloride], the inhibition at 2.5 µg/mL is 20%, the inhibition at 5 µg/mL was found to be 18%, the inhibition at 10 µg/mL was -1% and the inhibition at 20 µg/mL amounted to 99%. The inhibition at 40 µg/mL was found to be 99%.

The values above are taken from US6399629B1, “Efflux pump inhibitors” (priority 1998, dated 2002).
